# Experimental data from the supplement of paper PMC10307832.
# Compound: CC(O)(CS(=O)(=O)c1ccc(F)cc1)C(=O)Nc1ccc(C#N)c(C(F)(F)F)c1 [Bicalutamide] + CS(=O)(=O)CCNCc1ccc(-c2ccc3ncnc(Nc4ccc(OCc5cccc(F)c5)c(Cl)c4)c3c2)o1 [Lapatinib] (partner 2 µM)
# Test: relative viability (nuclei count vs DMSO), 5 days (fraction); higher = more cells survive
# Details: first compound 0.08 µM
# Procedure, shortened: (§1)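 Lung cancer cell lines in 1536-well plates were dosed by pin tool the day after seeding, either with one drug alone or with a fixed anchor-drug dose plus five library-drug doses (not always all listed) in √10 steps. After 5 days, cells were fixed and their nuclei stained in one step (final 0.05% Triton X-100, 1% formaldehyde, 1 ug/ml Hoechst), then counted on 4× images. Relative viability is the nuclei count in treated wells divided by that in vehicle wells. Values are medians of duplicate plates.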
row,Cell Line,relative viability
1,NCI-H838,1.09
2,NCI-H1650,0.905
3,EBC-1,0.209
4,NCI-H1703,1.16
5,NCI-H2009,1.23
6,PC-14,0.301
7,NCI-H596,1.02
8,NCI-H2228,0.707
9,EMC-BAC-2,0.85
10,NCI-H2087,1.24

# Same assay, conditions: first compound 0.253 µM
row,Cell Line,relative viability
1,NCI-H838,0.881
2,NCI-H1650,0.655
3,EBC-1,0.206
4,NCI-H1703,1.03
5,NCI-H2009,0.997
6,NCI-H1993,0.897
7,PC-14,0.295
8,NCI-H596,1.17
9,NCI-H2228,1.04
10,EMC-BAC-2,0.735
11,NCI-H2087,1.01

# Same assay, conditions: first compound 0.8 µM
row,Cell Line,relative viability
1,NCI-H838,1.38
2,NCI-H1650,1.09
3,EBC-1,0.211
4,NCI-H1703,1.18
5,NCI-H2009,1.2
6,NCI-H1993,0.732
7,PC-14,0.452
8,NCI-H596,1.16
9,NCI-H2228,1.23
10,EMC-BAC-2,0.912
11,NCI-H2087,1.15

# Same assay, conditions: first compound 2.53 µM
row,Cell Line,relative viability
1,NCI-H838,0.734
2,NCI-H1650,0.74
3,EBC-1,0.214
4,NCI-H1703,0.643
5,NCI-H2009,0.758
6,NCI-H1993,0.854
7,PC-14,0.297
8,NCI-H596,1.18
9,NCI-H2228,1.02
10,EMC-BAC-2,0.833
11,NCI-H2087,1

# Compound: C(C(=O)C(=O)O)Br [Bromopyruvate] + CS(=O)(=O)N1CCN(Cc2cc3nc(-c4cccc5[nH]ncc45)nc(N4CCOCC4)c3s2)CC1 [Pictilisib] (partner 1 µM)
# Test: as above
# Details: first compound 1 µM
# Procedure, shortened: as §1
row,Cell Line,relative viability
1,NCI-H838,0.463
2,NCI-H1650,0.545
3,EBC-1,0.374
4,NCI-H1703,0.238
5,NCI-H2009,0.764
6,NCI-H1993,0.827
7,PC-14,0.714
8,LCLC-103H,0.508
9,NCI-H596,0.431
10,NCI-H2228,0.349
11,EMC-BAC-2,0.472
12,NCI-H2087,0.834
13,ChaGo-K-1,0.978
14,NCI-H441,0.428

# Same assay, conditions: first compound 3.162 µM
row,Cell Line,relative viability
1,NCI-H838,0.446
2,NCI-H1650,0.532
3,EBC-1,0.467
4,NCI-H1703,0.226
5,NCI-H2009,0.831
6,NCI-H1993,0.729
7,PC-14,0.692
8,LCLC-103H,0.596
9,NCI-H596,0.396
10,NCI-H2228,0.37
11,EMC-BAC-2,0.557
12,NCI-H2087,0.984
13,ChaGo-K-1,0.766
14,NCI-H441,0.543

# Same assay, conditions: first compound 10 µM
row,Cell Line,relative viability
1,NCI-H838,0.495
2,NCI-H1650,0.567
3,EBC-1,0.412
4,NCI-H1703,0.256
5,NCI-H2009,0.742
6,NCI-H1993,0.895
7,PC-14,0.898
8,LCLC-103H,0.684
9,NCI-H596,0.419
10,NCI-H2228,0.402
11,EMC-BAC-2,0.572
12,NCI-H2087,0.96
13,ChaGo-K-1,0.581
14,NCI-H441,0.498

# Same assay, conditions: first compound 31.62 µM
row,Cell Line,relative viability
1,NCI-H838,0.493
2,NCI-H1650,0.651
3,EBC-1,0.42
4,NCI-H1703,0.271
5,NCI-H2009,0.709
6,NCI-H1993,0.935
7,PC-14,0.808
8,LCLC-103H,0.524
9,NCI-H596,0.419
10,NCI-H2228,0.416
11,EMC-BAC-2,0.539
12,NCI-H2087,0.844
13,ChaGo-K-1,0.685
14,NCI-H441,0.466

# Same assay, conditions: first compound 100 µM
row,Cell Line,relative viability
1,NCI-H838,0.448
2,NCI-H1650,0.512
3,EBC-1,0.415
4,NCI-H1703,0.269
5,NCI-H2009,0.613
6,NCI-H1993,0.774
7,PC-14,0.611
8,LCLC-103H,0.592
9,NCI-H596,0.423
10,NCI-H2228,0.635
11,EMC-BAC-2,0.622
12,NCI-H2087,0.886
13,ChaGo-K-1,0.622
14,NCI-H441,0.571

# Compound: C(C(=O)C(=O)O)Br [Bromopyruvate]
# Test: relative viability (nuclei count vs DMSO), 5 days (fraction); higher = more cells survive
# Details: 1 µM
# Procedure, shortened: (§2)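 Viability was defined as treated-well nuclei divided by vehicle-well nuclei, with the median taken over replicate plates. Cells from lung cancer lines sat overnight at 37 °C in 1536-well plates, received five √10-spaced library-drug doses by pinning on vehicle-anchored plates, and grew 5 days without medium change before one-step fixation, permeabilisation and Hoechst staining, 4× imaging and MetaXpress nuclear counts. Only plates with control CV under 25% and at least one doubling were kept.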
row,Cell Line,relative viability
1,NCI-H522,1.06
2,NCI-H1623,1.07
3,NCI-H838,0.994
4,NCI-H1650,0.998
5,EBC-1,0.912
6,NCI-H1703,0.914
7,NCI-H2009,0.975
8,NCI-H1993,0.833
9,PC-14,1.05
10,LCLC-103H,0.953
11,NCI-H596,1.09
12,NCI-H2228,1.07
13,EMC-BAC-2,0.982
14,NCI-H2087,0.947
15,NCI-H2342,0.975
16,ChaGo-K-1,0.979
17,SW 900,0.923
18,NCI-H1648,0.878
19,NCI-H441,0.949

# Same assay, conditions: 3.162 µM
row,Cell Line,relative viability
1,NCI-H522,0.975
2,NCI-H1623,0.944
3,NCI-H838,0.972
4,NCI-H1650,0.835
5,EBC-1,0.94
6,NCI-H1703,0.981
7,NCI-H2009,1.04
8,NCI-H1993,1.01
9,PC-14,1.07
10,LCLC-103H,0.992
11,NCI-H596,0.982
12,NCI-H2228,1.04
13,EMC-BAC-2,0.933
14,NCI-H2087,1.07
15,NCI-H2342,0.912
16,ChaGo-K-1,0.995
17,SW 900,0.774
18,NCI-H1648,0.916
19,NCI-H441,1.18

# Same assay, conditions: 10 µM
row,Cell Line,relative viability
1,NCI-H522,0.941
2,NCI-H1623,1.25
3,NCI-H838,1.05
4,NCI-H1650,0.959
5,EBC-1,1.14
6,NCI-H1703,0.955
7,NCI-H2009,0.96
8,NCI-H1993,1.1
9,PC-14,1.09
10,LCLC-103H,1.11
11,NCI-H596,1.03
12,NCI-H2228,1.27
13,EMC-BAC-2,0.986
14,NCI-H2087,1.09
15,NCI-H2342,1.02
16,ChaGo-K-1,1.07
17,SW 900,0.754
18,NCI-H1648,0.991
19,NCI-H441,1.17

# Same assay, conditions: 31.62 µM
row,Cell Line,relative viability
1,NCI-H522,0.939
2,NCI-H1623,0.973
3,NCI-H838,0.995
4,NCI-H1650,0.938
5,EBC-1,0.935
6,NCI-H1703,0.94
7,NCI-H2009,0.925
8,NCI-H1993,0.945
9,PC-14,0.997
10,LCLC-103H,0.994
11,NCI-H596,0.862
12,NCI-H2228,0.851
13,EMC-BAC-2,0.804
14,NCI-H2087,1.04
15,NCI-H2342,0.949
16,ChaGo-K-1,1
17,SW 900,0.881
18,NCI-H1648,0.769
19,NCI-H441,0.914

# Same assay, conditions: 100 µM
row,Cell Line,relative viability
1,NCI-H522,0.785
2,NCI-H1623,0.948
3,NCI-H838,0.894
4,NCI-H1650,0.865
5,EBC-1,0.987
6,NCI-H1703,0.778
7,NCI-H2009,0.734
8,NCI-H1993,0.951
9,PC-14,0.943
10,LCLC-103H,0.976
11,NCI-H596,1.12
12,NCI-H2228,1.02
13,EMC-BAC-2,1.01
14,NCI-H2087,0.974
15,NCI-H2342,0.903
16,ChaGo-K-1,1.02
17,SW 900,0.883
18,NCI-H1648,0.773
19,NCI-H441,0.679

# Compound: CC(O)(CS(=O)(=O)c1ccc(F)cc1)C(=O)Nc1ccc(C#N)c(C(F)(F)F)c1 [Bicalutamide]
# Test: as above
# Details: 0.08 µM
# Procedure, shortened: as §2
row,Cell Line,relative viability
1,NCI-H522,1.07
2,NCI-H1623,0.628
3,NCI-H838,0.95
4,NCI-H1650,0.967
5,EBC-1,0.977
6,NCI-H1703,0.941
7,NCI-H2009,1.11
8,NCI-H1993,0.896
9,PC-14,1.02
10,LCLC-103H,0.986
11,NCI-H596,0.956
12,NCI-H2228,0.798
13,EMC-BAC-2,1.03
14,NCI-H2087,1.09
15,NCI-H2342,1.06
16,ChaGo-K-1,0.998
17,SW 900,0.847
18,NCI-H441,1.13

# Same assay, conditions: 0.253 µM
row,Cell Line,relative viability
1,NCI-H522,0.828
2,NCI-H1623,0.89
3,NCI-H838,0.908
4,NCI-H1650,0.935
5,EBC-1,1.02
6,NCI-H1703,1.01
7,NCI-H2009,1.05
8,NCI-H1993,0.811
9,PC-14,1.01
10,LCLC-103H,0.971
11,NCI-H596,0.953
12,NCI-H2228,0.967
13,EMC-BAC-2,0.894
14,NCI-H2087,1.06
15,NCI-H2342,0.978
16,ChaGo-K-1,0.962
17,SW 900,0.858
18,NCI-H1648,0.662
19,NCI-H441,0.803

# Same assay, conditions: 0.8 µM
row,Cell Line,relative viability
1,NCI-H522,0.999
2,NCI-H1623,0.969
3,NCI-H838,1.05
4,NCI-H1650,1.1
5,EBC-1,1.1
6,NCI-H1703,0.983
7,NCI-H2009,1.04
8,NCI-H1993,0.987
9,PC-14,1.15
10,LCLC-103H,1.08
11,NCI-H596,1.07
12,NCI-H2228,1.56
13,EMC-BAC-2,1.05
14,NCI-H2087,1.25
15,NCI-H2342,1.07
16,ChaGo-K-1,1.18
17,SW 900,0.9
18,NCI-H1648,0.93
19,NCI-H441,1.45

# Same assay, conditions: 2.53 µM
row,Cell Line,relative viability
1,NCI-H522,0.991
2,NCI-H1623,0.904
3,NCI-H838,0.76
4,NCI-H1650,0.842
5,EBC-1,0.976
6,NCI-H1703,0.738
7,NCI-H2009,0.927
8,NCI-H1993,0.996
9,PC-14,0.976
10,LCLC-103H,0.918
11,NCI-H596,1.12
12,NCI-H2228,1.09
13,EMC-BAC-2,0.822
14,NCI-H2087,1.07
15,NCI-H2342,1.03
16,ChaGo-K-1,0.976
17,SW 900,0.742
18,NCI-H1648,1.2
19,NCI-H441,0.976
